Measured values published in patent US9637496B2, “Substituted 7-azabicycles and their use as orexin receptor modulators” (priority 2013, dated 2017).
Like-named read-outs stand apart in the source and are kept apart here.

Experiments:
human orexin 1 receptor = human orexin 1 receptor (Homo sapiens (Human), UniProt O43613); assay: Human orexin 1 receptor radioligand binding (competitive binding, CHO membranes)
human orexin 2 receptor = human orexin 2 receptor (Homo sapiens (Human), UniProt O43614); assay: Human orexin 2 receptor radioligand binding ([3H]-EMPA competition, HEK293 membranes)
rat orexin 1 receptor = rat orexin 1 receptor (Rattus norvegicus (Rat), UniProt P56718); assay: Rat orexin 1 receptor radioligand binding (competitive binding, HEK293 membranes)
[1] = human orexin 2 receptor, Table 2, averages from between 2-20 runs, read-out: hOX2 Ki
[2] = rat orexin 1 receptor, Table 2, averages from between 2-20 runs, read-out: rOX1 Ki
[3] = human orexin 1 receptor, Table 2, averages from between 2-20 runs, read-out: hOX1 Ki

human orexin 2 receptor, sequence (O43614 whole entry): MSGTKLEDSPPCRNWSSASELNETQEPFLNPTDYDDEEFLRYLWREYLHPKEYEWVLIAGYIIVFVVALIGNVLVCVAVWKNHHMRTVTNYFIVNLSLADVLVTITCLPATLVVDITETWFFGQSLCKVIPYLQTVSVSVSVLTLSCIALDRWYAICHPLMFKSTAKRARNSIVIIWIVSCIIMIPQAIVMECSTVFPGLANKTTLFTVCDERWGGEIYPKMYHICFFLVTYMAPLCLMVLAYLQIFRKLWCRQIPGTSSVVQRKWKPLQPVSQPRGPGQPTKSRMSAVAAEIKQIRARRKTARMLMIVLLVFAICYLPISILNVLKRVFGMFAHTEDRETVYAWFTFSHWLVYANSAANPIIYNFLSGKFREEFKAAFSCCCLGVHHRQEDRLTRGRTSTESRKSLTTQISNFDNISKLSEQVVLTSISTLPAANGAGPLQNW
rat orexin 1 receptor, sequence (P56718 whole entry): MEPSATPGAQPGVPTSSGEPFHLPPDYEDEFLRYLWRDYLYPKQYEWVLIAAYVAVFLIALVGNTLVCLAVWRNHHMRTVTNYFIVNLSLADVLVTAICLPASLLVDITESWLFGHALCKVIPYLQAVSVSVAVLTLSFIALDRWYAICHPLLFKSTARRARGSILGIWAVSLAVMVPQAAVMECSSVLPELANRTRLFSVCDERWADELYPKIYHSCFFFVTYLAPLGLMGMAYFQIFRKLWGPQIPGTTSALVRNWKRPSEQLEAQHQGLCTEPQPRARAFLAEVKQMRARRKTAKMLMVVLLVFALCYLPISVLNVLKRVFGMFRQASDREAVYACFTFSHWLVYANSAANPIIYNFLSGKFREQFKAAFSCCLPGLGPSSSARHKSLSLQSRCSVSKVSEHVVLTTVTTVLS
human orexin 1 receptor, sequence (O43613 whole entry): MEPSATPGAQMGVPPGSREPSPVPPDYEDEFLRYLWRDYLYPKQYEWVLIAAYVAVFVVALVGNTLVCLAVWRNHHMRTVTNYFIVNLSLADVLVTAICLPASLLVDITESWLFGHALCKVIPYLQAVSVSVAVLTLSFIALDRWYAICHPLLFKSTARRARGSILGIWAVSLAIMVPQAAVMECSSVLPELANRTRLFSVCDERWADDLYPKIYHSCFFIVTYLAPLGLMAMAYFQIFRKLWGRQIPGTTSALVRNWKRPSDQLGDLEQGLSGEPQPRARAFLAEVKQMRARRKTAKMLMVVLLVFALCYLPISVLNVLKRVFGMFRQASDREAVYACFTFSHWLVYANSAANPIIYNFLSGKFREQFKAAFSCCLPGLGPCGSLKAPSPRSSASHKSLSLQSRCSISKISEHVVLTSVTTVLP

Structure (SMILES): O=C(c1cc(F)ccc1-n1nccn1)N1C2CCC1C(COc1ccc(F)cn1)C2 (racemic) [Example 30, (±)-(5-fluoro-2-(2H-1,2,3-triazol-2-yl)phenyl)(2-(((5-fluoropyridin-2-yl)oxy)methyl)-7-azabicyclo[2.2.1]heptan-7-yl)methanone]
- Ki (human orexin 1 receptor): 60 nM
- Ki (human orexin 2 receptor; human orexin 2 receptor, Table 2, averages of 2-20 runs, read-out: hOX2 Ki): 160 nM

Structure (SMILES): O=C(c1ccccc1-n1nccn1)N1C2CCC1C(Oc1ccc(C(F)(F)F)cn1)C2 (racemic) [Example 421]
- Ki (rat orexin 1 receptor): 205 nM
- Ki (human orexin 1 receptor): 154 nM
- Ki (human orexin 2 receptor; [1]): 4200 nM

Structure (SMILES): Cc1cccc(C(=O)N2C3CCC2C(Oc2ccc(C(F)(F)F)cn2)C3)c1-n1nccn1 (racemic) [Example 422]
- Ki (rat orexin 1 receptor; [2]): 91 nM
- Ki (human orexin 1 receptor; [3]): 57 nM
- Ki (human orexin 2 receptor; [1]): 2150 nM

Structure (SMILES): O=C(c1cccc(F)c1-n1nccn1)N1C2CCC1C(Oc1ccc(C(F)(F)F)cn1)C2 (racemic) [Example 423]
- Ki (rat orexin 1 receptor): 202 nM
- Ki (human orexin 1 receptor): 174 nM
- Ki (human orexin 2 receptor): 4870 nM

Structure (SMILES): O=C(c1cccc(F)c1-c1ncccn1)N1C2CCC1C(Oc1ccc(C(F)(F)F)cn1)C2 (racemic) [Example 429]
- Ki (rat orexin 1 receptor): 77 nM
- Ki (human orexin 1 receptor): 120 nM
- Ki (human orexin 2 receptor; [1]): 6300 nM

Structure (SMILES): O=C(c1ccc(F)cc1-c1ncccn1)N1C2CCC1C(Oc1ccc(C(F)(F)F)cn1)C2 (racemic) [Example 430]
- Ki (rat orexin 1 receptor; [2]): 245 nM
- Ki (human orexin 1 receptor; [3]): 300 nM
- Ki (human orexin 2 receptor; [1]): > 10000 nM

Structure (SMILES): O=C(c1c(F)cccc1-c1ncccn1)N1C2CCC1C(Oc1ccc(C(F)(F)F)cn1)C2 (racemic) [Example 431]
- Ki (rat orexin 1 receptor): 143 nM
- Ki (human orexin 1 receptor): 180 nM
- Ki (human orexin 2 receptor): 5100 nM

Structure (SMILES): O=C(c1ccccc1-c1ncccn1)N1C2CCC1C(Oc1ccc(C(F)(F)F)cn1)C2 (racemic) [Example 432]
- Ki (rat orexin 1 receptor; [2]): 147 nM
- Ki (human orexin 1 receptor; [3]): 307 nM
- Ki (human orexin 2 receptor; [1]): 6000 nM

Structure (SMILES): O=C(c1ccccc1-c1ncc(F)cn1)N1C2CCC1C(Oc1ccc(C(F)(F)F)cn1)C2 (racemic) [Example 433]
- Ki (rat orexin 1 receptor): 107 nM
- Ki (human orexin 1 receptor): 73 nM
- Ki (human orexin 2 receptor; [1]): 2500 nM

Structure (SMILES): O=C(c1cccc(F)c1-c1ncc(F)cn1)N1C2CCC1C(Oc1ccc(C(F)(F)F)cn1)C2 (racemic) [Example 434]
- Ki (rat orexin 1 receptor): 134 nM
- Ki (human orexin 1 receptor): 172 nM
- Ki (human orexin 2 receptor): > 10000 nM

Structure (SMILES): Cc1cccc(C(=O)N2C3CCC2C(Oc2ccc(C(F)(F)F)cn2)C3)c1-c1ncco1 (racemic) [Example 435]
- Ki (rat orexin 1 receptor): 50 nM
- Ki (human orexin 1 receptor): 29 nM
- Ki (human orexin 2 receptor): 520 nM

Structure (SMILES): O=C(c1cccc(F)c1-c1ncco1)N1C2CCC1C(Oc1ccc(C(F)(F)F)cn1)C2 (racemic) [Example 436]
- Ki (rat orexin 1 receptor; [2]): 143 nM
- Ki (human orexin 1 receptor; [3]): 116 nM
- Ki (human orexin 2 receptor): 3500 nM

Structure (SMILES): O=C(c1cccc(F)c1-n1nccn1)N1C2CCC1C(Oc1ccc(Br)cn1)C2 (racemic) [Example 440]
- Ki (rat orexin 1 receptor; [2]): 118 nM
- Ki (human orexin 1 receptor; [3]): 100 nM
- Ki (human orexin 2 receptor; [1]): 6000 nM

Structure (SMILES): Cc1cccc(C(=O)N2C3CCC2C(Oc2cnc(C(F)(F)F)cn2)C3)c1-n1nccn1 (racemic) [Example 444]
- Ki (rat orexin 1 receptor): 165 nM
- Ki (human orexin 1 receptor): 237 nM
- Ki (human orexin 2 receptor): 4200 nM

Structure (SMILES): O=C(c1cccc(F)c1-c1ncccn1)N1[C@@H]2CC[C@H]1[C@H](Nc1cnc(C(F)(F)F)cn1)C2 [Example 238, (3-fluoro-2-(pyrimidin-2-yl)phenyl)((1S,2R,4R)-2-((5-(trifluoromethyl)pyrazin-2-yl)amino)-7-azabicyclo[2.2.1]heptan-7-yl)methanone]
- Ki (rat orexin 1 receptor): 15 nM
- Ki (human orexin 1 receptor): 15 nM
- Ki (human orexin 2 receptor): 763 nM

Structure (SMILES): O=C(c1cccc(F)c1-c1ncccn1)N1[C@@H]2CC[C@H]1[C@H](Nc1ccc(C(F)(F)F)cn1)C2 [Example 279, (3-fluoro-2-(pyrimidin-2-yl)phenyl)((1S,2R,4R)-2-((5-(trifluoromethyl)pyridin-2-yl)amino)-7-azabicyclo[2.2.1]heptan-7-yl)methanone]
- Ki (rat orexin 1 receptor): 18 nM
- Ki (human orexin 1 receptor): 9 nM
- Ki (human orexin 2 receptor): 990 nM

Structure (SMILES): O=C(c1cccc(F)c1-c1ncco1)N1[C@@H]2CC[C@H]1[C@H](Nc1ccc(C(F)(F)F)cn1)C2 [Example 298, (3-fluoro-2-(oxazol-2-yl)phenyl)((1S,2R,4R)-2-((5-(trifluoromethyl)pyridin-2-yl)amino)-7-azabicyclo[2.2.1]heptan-7-yl)methanone]
- Ki (rat orexin 1 receptor; [2]): 18 nM
- Ki (human orexin 1 receptor; [3]): 18 nM
- Ki (human orexin 2 receptor; [1]): 500 nM

Structure (SMILES): Cc1cccc(C(=O)N2[C@@H]3CC[C@H]2[C@H](Nc2ccc(C(F)(F)F)cn2)C3)c1-c1ncccn1 [Example 299, (3-methyl-2-(pyrimidin-2-yl)phenyl)((1S,2R,4R)-2-((5-(trifluoromethyl)pyridin-2-yl)amino)-7-azabicyclo[2.2.1]heptan-7-yl)methanone]
- Ki (rat orexin 1 receptor; [2]): 16 nM
- Ki (human orexin 1 receptor; [3]): 7 nM
- Ki (human orexin 2 receptor; [1]): 234 nM

Structure (SMILES): O=C(c1cccc(Cl)c1-c1ncccn1)N1[C@@H]2CC[C@H]1[C@H](Nc1cnc(C(F)(F)F)cn1)C2 [Example 300, (3-chloro-2-(pyrimidin-2-yl)phenyl)((1S,2R,4R)-2-((5-(trifluoromethyl)pyrazin-2-yl)amino)-7-azabicyclo[2.2.1]heptan-7-yl)methanone]
- Ki (rat orexin 1 receptor; read-out: rOX1 Ki): 9 nM
- Ki (human orexin 1 receptor; read-out: hOX1 Ki): 9 nM
- Ki (human orexin 2 receptor; [1]): 93 nM

Structure (SMILES): Cc1cccc(C(=O)N2[C@@H]3CC[C@H]2[C@H](Nc2ccc(Br)cn2)C3)c1-c1ncco1 [Example 302, ((1S,2R,4R)-2-((5-bromopyridin-2-yl)amino)-7-azabicyclo[2.2.1]heptan-7-yl)(3-methyl-2-(oxazol-2-yl)phenyl)methanone]
- Ki (rat orexin 1 receptor; read-out: rOX1 Ki): 5 nM
- Ki (human orexin 1 receptor; read-out: hOX1 Ki): 5 nM
- Ki (human orexin 2 receptor; [1]): 188 nM

Structure (SMILES): O=C(c1cccc(F)c1-c1ncccn1)N1C2CCC1C(Nc1ccc(Br)cn1)C2 [Example 303, ((1S,2R,4R)-2-((5-bromopyridin-2-yl)amino)-7-azabicyclo[2.2.]heptan-7-yl)(3-fluoro-2-(pyrimidin-2-yl)phenyl)methanone]
- Ki (rat orexin 1 receptor; read-out: rOX1 Ki): 22 nM
- Ki (human orexin 1 receptor; read-out: hOX1 Ki): 16 nM
- Ki (human orexin 2 receptor; [1]): 1300 nM

Structure (SMILES): Cc1cccc(C(=O)N2[C@@H]3CC[C@H]2[C@H](Nc2ccc(Br)cn2)C3)c1-c1ncccn1 [Example 304, ((1S,2R,4R)-2-((5-bromopyridin-2-yl)amino)-7-azabicyclo[2.2.1]heptan-7-yl)(3-methyl-2-(pyrimidin-2-yl)phenyl)methanone]
- Ki (rat orexin 1 receptor; [2]): 12 nM
- Ki (human orexin 1 receptor; [3]): 16 nM
- Ki (human orexin 2 receptor; [1]): 455 nM

Structure (SMILES): O=C(c1cccc(F)c1-n1nccn1)N1[C@@H]2CC[C@H]1[C@H](Nc1ccc(Br)cn1)C2 [Example 305, ((1S,2R,4R)-2-((5-bromopyridin-2-yl)amino)-7-azabicyclo[2.2.1]heptan-7-yl)(3-fluoro-2-(2H-1,2,3-triazol-2-yl)phenyl)methanone]
- Ki (rat orexin 1 receptor; read-out: rOX1 Ki): 24 nM
- Ki (human orexin 1 receptor; read-out: hOX1 Ki): 12 nM
- Ki (human orexin 2 receptor; [1]): 980 nM

Structure (SMILES): Cc1cccc(C(=O)N2[C@@H]3CC[C@H]2[C@H](Nc2ccc(Br)cn2)C3)c1-n1nccn1 [Example 306, ((1S,2R,4R)-2-((5-bromopyridin-2-yl)amino)-7-azabicyclo[2.2.1]heptan-7-yl)(3-methyl-2-(2H-1,2,3-triazol-2-yl)phenyl)methanone]
- Ki (rat orexin 1 receptor; read-out: rOX1 Ki): 11 nM
- Ki (human orexin 1 receptor; read-out: hOX1 Ki): 4 nM
- Ki (human orexin 2 receptor; [1]): 396 nM

Structure (SMILES): Cc1cccc(C(=O)N2C3CCC2C(Nc2cnc(Br)cn2)C3)c1-c1ncco1 [Example 308, ((1S,2R,4R)-2-((5-bromopyrazin-2-yl)amino)-7-azabicyclo[2.2.]heptan-7-yl)(3-methyl-2-(oxazol-2-yl)phenyl)methanone]
- Ki (rat orexin 1 receptor; [2]): 6 nM
- Ki (human orexin 1 receptor; [3]): 4 nM
- Ki (human orexin 2 receptor; [1]): 173 nM

Structure (SMILES): O=C(c1cccc(F)c1-c1ncccn1)N1[C@@H]2CC[C@H]1[C@H](Nc1cnc(Br)cn1)C2 [Example 309, ((1S,2R,4R)-2-((5-bromopyrazin-2-yl)amino)-7-azabicyclo[2.2.1]heptan-7-yl)(3-fluoro-2-(pyrimidin-2-yl)phenyl)methanone]
- Ki (rat orexin 1 receptor; read-out: rOX1 Ki): 19 nM
- Ki (human orexin 1 receptor; read-out: hOX1 Ki): 22 nM
- Ki (human orexin 2 receptor; [1]): 1100 nM

Structure (SMILES): Cc1cccc(C(=O)N2[C@@H]3CC[C@H]2[C@H](Nc2cnc(Br)cn2)C3)c1-c1ncccn1 [Example 310, ((1S,2R,4R)-2-((5-bromopyrazin-2-yl)amino)-7-azabicyclo[2.2.1]heptan-7-yl)(3-methyl-2-(pyrimidin-2-yl)phenyl)methanone]
- Ki (rat orexin 1 receptor; [2]): 9 nM
- Ki (human orexin 1 receptor; [3]): 7 nM
- Ki (human orexin 2 receptor; [1]): 381 nM

Structure (SMILES): O=C(c1cccc(F)c1-n1nccn1)N1[C@@H]2CC[C@H]1[C@H](Nc1cnc(Br)cn1)C2 [Example 311, ((1S,2R,4R)-2-((5-bromopyrazin-2-yl)amino)-7-azabicyclo[2.2.1]heptan-7-yl)(3-fluoro-2-(2H-1,2,3-triazol-2-yl)phenyl)methanone]
- Ki (rat orexin 1 receptor; read-out: rOX1 Ki): 17 nM
- Ki (human orexin 1 receptor; read-out: hOX1 Ki): 21 nM
- Ki (human orexin 2 receptor; [1]): 1000 nM

Structure (SMILES): Cc1cccc(C(=O)N2[C@@H]3CC[C@H]2[C@H](Nc2cnc(Br)cn2)C3)c1-n1nccn1 [Example 312, ((1S,2R,4R)-2-((5-bromopyrazin-2-yl)amino)-7-azabicyclo[2.2.1]heptan-7-yl)(3-methyl-2-(2H-1,2,3-triazol-2-yl)phenyl)methanone]
- Ki (rat orexin 1 receptor; read-out: rOX1 Ki): 6 nM
- Ki (human orexin 1 receptor; read-out: hOX1 Ki): 9 nM
- Ki (human orexin 2 receptor; [1]): 360 nM

Structure (SMILES): Cc1cccc(C(=O)N2[C@@H]3CC[C@H]2[C@H](Nc2ncc(Br)cn2)C3)c1-c1ncco1 [Example 314, ((1S,2R,4R)-2-((5-bromopyrimidin-2-yl)amino)-7-azabicyclo[2.2.1]heptan-7-yl)(3-methyl-2-(oxazol-2-yl)phenyl)methanone]
- Ki (rat orexin 1 receptor; read-out: rOX1 Ki): 6 nM
- Ki (human orexin 1 receptor; read-out: hOX1 Ki): 14 nM
- Ki (human orexin 2 receptor; [1]): 349 nM

Structure (SMILES): O=C(c1cccc(F)c1-c1ncccn1)N1[C@@H]2CC[C@H]1[C@H](Nc1ncc(Br)cn1)C2 [Example 315, ((1S,2R,4R)-2-((5-bromopyrimidin-2-yl)amino)-7-azabicyclo[2.2.1]heptan-7-yl)(3-fluoro-2-(pyrimidin-2-yl)phenyl)methanone]
- Ki (rat orexin 1 receptor; [2]): 30 nM
- Ki (human orexin 1 receptor; [3]): 52 nM
- Ki (human orexin 2 receptor; [1]): 1850 nM

Structure (SMILES): Cc1ccc(-c2ncccn2)c(C(=O)N2[C@@H]3CC[C@H]2[C@H](Nc2ccc(C(F)(F)F)cn2)C3)n1 [Example 379, (6-methyl-3-(pyrimidin-2-yl)pyridin-2-yl)((1S,2R,4R)-2-((5-(trifluoromethyl)pyridin-2-yl)amino)-7-azabicyclo[2.2.1]heptan-7-yl)methanone]
- Ki (rat orexin 1 receptor; read-out: rOX1 Ki): 25 nM
- Ki (human orexin 1 receptor; read-out: hOX1 Ki): 24 nM
